Measured values reported in ChEMBL document CHEMBL1140565, “Dipeptidyl alpha-fluorovinyl Michael acceptors: synthesis and activity against cysteine proteases” (Bioorg Med Chem Lett, 2007).

What was measured:
Leishmania mexicana [1] = assay: Inhibition of Leishmania mexicana cysteine protease CBP2.8deltaCTE at 20 ug/mL
Leishmania mexicana [2] = assay: Inhibition of Leishmania mexicana cysteine protease CBP2.8deltaCTE at 2 ug/mL

Structure (SMILES): CC(C)(C)OC(=O)N[C@@H](Cc1ccccc1)/C(SCCc1ccccc1)=C(\F)S(=O)(=O)c1ccccc1
- inhibition (Leishmania mexicana [1]): 38.7%
- inhibition (Leishmania mexicana [2]): 1.1%

Structure (SMILES): CC(C)(C)OC(=O)N[C@@H](Cc1ccccc1)/C(SCCc1ccccc1)=C(/F)S(=O)(=O)c1ccccc1
- inhibition (Leishmania mexicana [1]): 15.1%
- inhibition (Leishmania mexicana [2]): 0%

Structure (SMILES): O=C(N[C@H](/C=C/S(=O)(=O)c1ccccc1)Cc1ccccc1)[C@H](Cc1ccccc1)NC(=O)N1CCOCC1
- inhibition (Leishmania mexicana [1]): 97%
- inhibition (Leishmania mexicana [2]): 71.3%
